From PubChem BioAssay (NCI)
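Tested at 5 concentrations; 48 h exposure; 96-well plates; endpoints linearly interpolated, else capped at highest concentration. TGI denotes the concentration required for complete inhibition of growth.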

Columns and labels:
Assay in all cases: NCI tumour cell line growth inhibition, 48 h
MDA-N = tested on: MDA-N
HCT-15 colon = tested on: HCT-15 colon
RXF 393 renal = tested on: RXF 393 renal
OVCAR-4 ovarian = tested on: OVCAR-4 ovarian
HOP-92 NSCLC = tested on: HOP-92 NSCLC
SF-295 CNS = tested on: SF-295 CNS
OVCAR-5 ovarian = tested on: OVCAR-5 ovarian
A549 NSCLC = tested on: A549 NSCLC
LOX IMVI melanoma = tested on: LOX IMVI melanoma
TK-10 renal = tested on: TK-10 renal
DU-145 prostate = tested on: DU-145 prostate
HCT-116 colon = tested on: HCT-116 colon
MCF7 breast = tested on: MCF7 breast
CCRF-CEM leukemia = tested on: CCRF-CEM leukemia
CAKI-1 renal = tested on: CAKI-1 renal
OVCAR-8 ovarian = tested on: OVCAR-8 ovarian
HL-60(TB) leukemia = tested on: HL-60(TB) leukemia
HCC-2998 colon = tested on: HCC-2998 colon
PC-3 prostate = tested on: PC-3 prostate
BT-549 breast = tested on: BT-549 breast
MDA-MB-231 breast = tested on: MDA-MB-231 breast
SK-MEL-28 melanoma = tested on: SK-MEL-28 melanoma
U251 CNS = tested on: U251 CNS
MOLT-4 leukemia = tested on: MOLT-4 leukemia
SNB-75 CNS = tested on: SNB-75 CNS
NCI/ADR-RES ovarian = tested on: NCI/ADR-RES ovarian
NCI-H226 lung = tested on: NCI-H226 lung
HS 578T breast = tested on: HS 578T breast
COLO 205 colon = tested on: COLO 205 colon
ACHN renal = tested on: ACHN renal
NCI-H23 lung = tested on: NCI-H23 lung
SN12C renal = tested on: SN12C renal
SK-MEL-2 melanoma = tested on: SK-MEL-2 melanoma
SK-OV-3 ovarian = tested on: SK-OV-3 ovarian
KM12 colon = tested on: KM12 colon
SR leukemia = tested on: SR leukemia
RPMI-8226 leukemia = tested on: RPMI-8226 leukemia
UO-31 renal = tested on: UO-31 renal
IGROV1 ovarian = tested on: IGROV1 ovarian
HOP-62 NSCLC = tested on: HOP-62 NSCLC
SW-620 colon = tested on: SW-620 colon
MALME-3M melanoma = tested on: MALME-3M melanoma
SF-539 CNS = tested on: SF-539 CNS
SNB-19 CNS = tested on: SNB-19 CNS
SF-268 CNS = tested on: SF-268 CNS
786-0 renal = tested on: 786-0 renal
UACC-62 melanoma = tested on: UACC-62 melanoma
M14 melanoma = tested on: M14 melanoma
UACC-257 melanoma = tested on: UACC-257 melanoma
NCI-H522 lung = tested on: NCI-H522 lung
OVCAR-3 ovarian = tested on: OVCAR-3 ovarian
HT29 colon = tested on: HT29 colon
MDA-MB-435 = tested on: MDA-MB-435
T-47D breast = tested on: T-47D breast
EKVX NSCLC = tested on: EKVX NSCLC

Measured: TGI

COc1ccc(/C=C2\N=C(N3CCOCC3)NC2=O)cc1
> 100 µM: MDA-N | HCT-15 colon | RXF 393 renal | OVCAR-4 ovarian | HOP-92 NSCLC | SF-295 CNS | OVCAR-5 ovarian | A549 NSCLC | LOX IMVI melanoma | TK-10 renal | DU-145 prostate | HCT-116 colon | MCF7 breast | CCRF-CEM leukemia | CAKI-1 renal | OVCAR-8 ovarian | HL-60(TB) leukemia | HCC-2998 colon | PC-3 prostate | BT-549 breast | MDA-MB-231 breast | SK-MEL-28 melanoma | U251 CNS | MOLT-4 leukemia | SNB-75 CNS | NCI/ADR-RES ovarian | NCI-H226 lung | HS 578T breast | COLO 205 colon | ACHN renal | NCI-H23 lung | SN12C renal | SK-MEL-2 melanoma | SK-OV-3 ovarian | KM12 colon | SR leukemia | RPMI-8226 leukemia | UO-31 renal | IGROV1 ovarian | HOP-62 NSCLC | SW-620 colon | MALME-3M melanoma | SF-539 CNS | SNB-19 CNS | SF-268 CNS | 786-0 renal | UACC-62 melanoma | M14 melanoma | UACC-257 melanoma | NCI-H522 lung | OVCAR-3 ovarian | HT29 colon | MDA-MB-435 | T-47D breast | EKVX NSCLC
